The values that follow come from patent publication US20240240155A1, “Organoid-Derived Monolayers and Uses Thereof” (Hub Organoids IP B.V., priority 2021, published 2024).

For this assay, the target named is T1, OCT2 (Homo sapiens, UniProt O15244).
T1 construct: endogenous in cells; host or cells: human kidney organoid-derived monolayer (donor kidney-C)
T1 sequence (O15244 1-555): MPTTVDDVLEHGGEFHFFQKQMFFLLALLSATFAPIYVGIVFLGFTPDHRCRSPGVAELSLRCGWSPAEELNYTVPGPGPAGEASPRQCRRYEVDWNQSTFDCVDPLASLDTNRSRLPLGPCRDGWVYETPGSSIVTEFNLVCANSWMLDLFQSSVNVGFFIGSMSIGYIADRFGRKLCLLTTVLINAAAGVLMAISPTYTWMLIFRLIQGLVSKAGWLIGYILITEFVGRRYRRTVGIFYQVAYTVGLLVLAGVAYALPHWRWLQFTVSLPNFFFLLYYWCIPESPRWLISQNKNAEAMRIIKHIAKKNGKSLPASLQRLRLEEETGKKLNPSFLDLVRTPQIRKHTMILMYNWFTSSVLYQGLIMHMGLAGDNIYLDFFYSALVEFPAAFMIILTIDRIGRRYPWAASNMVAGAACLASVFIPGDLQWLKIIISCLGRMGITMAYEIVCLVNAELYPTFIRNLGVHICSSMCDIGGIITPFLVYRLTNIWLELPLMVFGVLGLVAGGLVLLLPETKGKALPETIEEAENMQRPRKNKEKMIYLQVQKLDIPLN
Nature of the assay: Rhodamine transport assay, kidney-C monolayers. The note with it: 1 μM, 30 mins; day 7. The assay is classed as cell-based. The protocol: FIG. 28 illustrates fluorescence measurements for accumulated intracellular Rhodamine 123 for kidney-C cultures grown in KEM media, with or without addition of 1 uM decitabine (DAC) on day 2 after seeding, in the presence or absence of PSC833 (a specific P-gp inhibitor) and decynium-22 (a specific OCT2 inhibitor). A sample incubated with PBS only (without […]) was used as a negative control. RFU, relative fluorescence units.
Rhodamine transport from the basolateral compartment into kidney monolayers grown in either the KEM or DAC conditions as described in Example 9 was measured on day 7 after seeding in the presence or absence of the P-gp inhibitor PSC-833 and/or OCT2 inhibitor Decynium-22 as follows: • 1. Remove media and rinse cells using PBS. • 2. Add fresh buffer under one of the following conditions (37° C.): • 1. 1 μM Decynium-22, 30 mins, • 2. 1 μM PSC-833, 30 mins, • 3. 1 μM Decynium-22 and 1 μM PSC-833, 30 mins, or • 4. Untreated Control, 30 mins. • 3. Add Rhodamine 123 at a final concentration 250 nM to the basolateral compartment and incubate for 30 minutes at 37° C. • 4. Analyse cellular accumulation of Rhodamine 123 using fluorescence (Excitation λ 490 nm, Emission λ 520 nm). • 5. Assess accumulation differences.

As to `CCN1/C(=C/c2ccc3ccccc3[n+]2CC)C=Cc2ccccc21.[I-]` [Decynium-22], the “cellular accumulation of Rhodamine” value was “decreased accumulation”.
